This note sets out measurements from ChEMBL document CHEMBL6127025, “Discovery of a potent, selective, and orally available EGFR C797S mutant inhibitor (DS06652923) with in vivo antitumor activity” (Bioorg Med Chem, 2024).

One may read the GI50 as the concentration at which growth is held to half of that of the control. Higher therefore signals less potent growth inhibition. By logD is commonly meant the decadic logarithm of the distribution of all forms, ionised or not, between an organic phase and buffer at a given pH. A lower logD goes with a more hydrophilic compound. Usually Papp stands for a coefficient for how fast a substance crosses the barrier. What is called solubility is how much of the substance goes into solution per volume.

The test system of data set [1] is BaF3. Nature of the data set: Anti-proliferative activity against mouse BaF3 cells expressing EGFR […]/T790M/C797S mutant incubated for 3 days by Cell Titer Glo 2.0 assay. Type of data set: functional. The settings on record: BaF3, 72 h, time 3 day. Background: Cellular ATP, detected with luciferase, serves as a proxy for viable cell number.
Data set [2] has as its system BaF3. Briefly: Anti-proliferative activity against mouse BaF3 cells expressing wild-type EGFR incubated for 3 days by Cell Titer Glo 2.0 assay. The following applies: BaF3, 72 h, time 3 day. The class given is functional.
Data set [3] deals with BaF3. Nature of the data set: Antitumor activity against mouse BaF3 cells expressing EGFR […]/T790M/[…] mutant allografted in Balb/c nude mouse at 25 mg/kg, po qd for 5 days consecutively relative to control. Type of data set: functional. The following applies: BaF3, 120 h, time 5 day, read-out: TGI.
Data set [4] is described as follows: Metabolic stability in human liver microsomes assessed as compound remaining. Type of data set: ADME, Microsome. For orientation: Liver microsomes are a subcellular fraction often used to study metabolism.
Data set [5] concerns BaF3. Nature of the data set: Antitumor activity against mouse BaF3 cells expressing EGFR […]/T790M/[…] mutant allografted in Balb/c nude mouse at 25 mg/kg, po bid for 5 days consecutively relative to control. The class given is functional. The settings on record: BaF3, 120 h, time 5 day, read-out: TGI.
Data set [6] concerns BaF3. Nature of the data set: Antitumor activity against mouse BaF3 cells expressing EGFR […]/T790M/[…] mutant allografted in Balb/c nude mouse administered orally once daily for 5 days consecutively. Type of data set: functional, cell-based. The settings on record: dose 25-100 mg/kg, route po, time 5.0 day.
Data set [7] relates to BaF3. Briefly: Antitumor activity against mouse BaF3 cells expressing EGFR […]/T790M/[…] mutant allografted in Balb/c nude mouse at 12.5 mg/kg, po bid for 5 days consecutively relative to control. The class given is functional. The following applies: BaF3, 120 h, time 5 day, read-out: TGI.
Data set [8] deals with BaF3. Briefly: Anti-proliferative activity against mouse BaF3 cells expressing EGFR L858R/T790M/C797S mutant incubated for 3 days by Cell Titer Glo 2.0 assay. The class given is functional. The settings on record: BaF3, 72 h, time 3 day.
The nature of data set [9]: Lipophilicity, logD of compound. Type of data set: physicochemical. The settings on record: octanol/water.
The nature of data set [10]: Metabolic stability in mouse liver microsomes assessed as compound remaining. Type of data set: ADME, Microsome.
A short description of data set [11]: Toxicity in Balb/c nude mouse allografted with mouse BaF3 cells expressing EGFR […]/T790M/[…] mutant assessed as signs of toxicity at 12.5 to 25 mg/kg, po bid for 5 days consecutively. The class given is organism-based. The following applies: in vivo, 120 h, dose 12.5-25 mg/kg, time 5 day.
Data set [12] can be described thus: Toxicity in Balb/c nude mouse allografted with mouse BaF3 cells expressing EGFR […]/T790M/[…] mutant assessed as body weight loss at 25 to 100 mg/kg, po qd for 5 days consecutively. Type of data set: organism-based. The following applies: in vivo, 120 h, dose 25-100 mg/kg, time 5 day.
The nature of data set [13]: Apparent permeability in MDCK cells. The class given is ADME, cell-based, Canis lupus familiaris. The following applies: dog.
The nature of data set [14]: Toxicity in Balb/c nude mouse allografted with mouse BaF3 cells expressing EGFR […]/T790M/[…] mutant assessed as signs of toxicity at 25 to 100 mg/kg, po qd for 5 days consecutively. Type of data set: organism-based. The following applies: in vivo, 120 h, dose 25-100 mg/kg, time 5 day.
Data set [15] is described as follows: In vivo inhibition of phosphorylation of EGFR […]/T790M/[…] mutant at Y1068 in mouse BaF3 cells allografted in Balb/c nude mouse at 12.5 to 100 mg/kg, po measured after 6 hrs by Western blot analysis relative to control. The class given is functional. The following applies: dose 12.5-100 mg/kg.
Data set [16] can be described thus: Solubility of compound at pH 1.2. Type of data set: physicochemical. The following applies: buffer.
A short description of data set [17]: Toxicity in Balb/c nude mouse allografted with mouse BaF3 cells expressing EGFR […]/T790M/[…] mutant assessed as body weight loss at 12.5 to 25 mg/kg, po bid for 5 days consecutively. The class given is organism-based. The settings on record: in vivo, 120 h, dose 12.5-25 mg/kg, time 5 day.
The subject of data set [18] is BaF3. Nature of the data set: Antitumor activity against mouse BaF3 cells expressing EGFR […]/T790M/[…] mutant allografted in Balb/c nude mouse administered orally twice daily for 5 days consecutively. The settings on record: dose 12.5-25 mg/kg, route po, time 5.0 day. The class given is functional, cell-based.
Data set [19] is described as follows: Plasma protein binding in mouse. The class given is ADME, cell-free. The following applies: read-out: PPB.
Data set [20] can be described thus: Plasma protein binding in human. The following applies: read-out: PPB. The class given is ADME, cell-free.
Data set [21] has as its system BaF3. Briefly: Antitumor activity against mouse BaF3 cells expressing EGFR […]/T790M/[…] mutant allografted in Balb/c nude mouse at 100 mg/kg, po qd for 5 days consecutively relative to control. The class given is functional. The settings on record: BaF3, 120 h, time 5 day, read-out: TGI.
A short description of data set [22]: Solubility of compound at pH 6.8. The class given is physicochemical. The following applies: buffer.

Converted amounts (≈) assume the structure as drawn.

As to `CC(C)Oc1cc(Nc2ccnc(-c3cnn(S(=O)(=O)C4CC4)c3)n2)ncc1-c1cn([C@H]2C[C@H](C)N(C)C2)nc1F`, the figures for the GI50 in [1] and in data set [2] were 43 nM and 856 nM, respectively.

Turning to `CC(C)Oc1cc(Nc2ccnc(-c3cnn(S(=O)(=O)C4CC4)c3)n2)ncc1-c1cnn(C2CCOCC2)c1`, the GI50 in data set [1] turned out to be 46 nM; in [2] it was 353 nM.

As for `CC(C)Oc1cc(Nc2ccnc(-c3cnn(S(=O)(=O)C4CC4)c3)n2)ncc1-c1cnn(-c2ccncc2)c1`, the GI50 in [1] was 601 nM; in [2], above 10000 nM.

On to `CC(C)Oc1cc(Nc2ccnc(-c3cnn(S(=O)(=O)C4CC4)c3)n2)ncc1-c1cn(C2CCN(C)CC2)nc1OC(F)F`, for which the inhibition in vivo at 25 mg/kg worked out at 111% in data set [3] and 119% in data set [5]. In addition, the Stability in data set [4] stood at 18%; in [10], 55%. The Activity result in data set [6] was “Dose-Dependent Effect”; in [11] it was “Non-Toxic”; in [12] it was “Non-Toxic”; in data set [14], “Non-Toxic”; in [17], “Non-Toxic”; in data set [18] it was “Dose-Dependent Effect”. Also, the GI50 in [1] turned out to be 9.4 nM; in data set [2] it was 760 nM; in [8], 13 nM. The inhibition in vivo at 12.5 mg/kg in data set [7] is 88%. In addition, the logD in data set [9] stood at 4.6. Besides, the Papp in data set [13] turned out to be 9 ×10⁻⁶ cm/s. Besides, the “inhibition (INH)” value in data set [15] is reported as 100%. In addition, the concentration in solution in data set [16] (solubility) came to 1200 µg/mL (≈ 1910 µM). For the same compound, the fraction unbound in data set [19] and in [20] was below 0.002 throughout. Further, in [21], the inhibition in vivo at 100 mg/kg worked out at 127%.

As to `COc1nn([C@H]2C[C@H](C)N(C)C2)cc1-c1cnc(Nc2ccnc(-c3cnn(S(=O)(=O)C4CC4)c3)n2)cc1OC(C)C`, the Stability in data set [4] amounted to 1%; in [10], 20%. The GI50 in data set [1] stood at 12 nM; in data set [2] it was 574 nM; in [8], 23 nM. The same compound gave a log distribution coefficient (logD) in [9] of 5.4. For the same compound, the Papp in [13] was 5.2 ×10⁻⁶ cm/s. Further, the solubility in data set [16] was above 1100 µg/mL. Also, the fraction unbound in data set [19] and in data set [20] was below 0.002 throughout.

Consider `COc1nn(C2CCN(C)CC2)cc1-c1cnc(Nc2ccnc(-c3cnn(S(=O)(=O)C4CC4)c3)n2)cc1OC(C)C`, for which the Stability in data set [4] is 24%; in data set [10] it was 48%. Further, the GI50 in data set [1] was found to be 6.5 nM; in data set [2] it was 565 nM; in data set [8], 18 nM. The logD in data set [9] stood at 4.4. For the same compound, the Papp in data set [13] is 3.1 ×10⁻⁶ cm/s. Further, the solubility was above 1100 µg/mL in data set [16] and 15 µg/mL (≈ 25.3 µM) in data set [22]. Further, the fraction unbound in [19] and in data set [20] was below 0.002 throughout.

On to `CC(C)Oc1cc(Nc2ccnc(-c3cnn(S(=O)(=O)C4CC4)c3)n2)ncc1-c1cnn(C)c1`, for which the values for the GI50 in data set [1] and in data set [2] were 61 nM and 879 nM, respectively.

As to `CC(C)Oc1cc(Nc2ccnc(-c3cnn(S(=O)(=O)C4CC4)c3)n2)ncc1-c1cnn([C@@H]2CCN(C)C2)c1`, the figures for the GI50 in [1] and in data set [2] were 21 nM and 318 nM, respectively.

In the case of `Cc1nn([C@H]2C[C@H](C)N(C)C2)cc1-c1cnc(Nc2ccnc(-c3cnn(S(=O)(=O)C4CC4)c3)n2)cc1OC(C)C`, the GI50 was 168 nM in data set [1] and 2290 nM in data set [2].

Regarding `CC(C)Oc1cc(Nc2ccnc(-c3cnn(S(=O)(=O)C4CC4)c3)n2)ncc1-c1cnn([C@H]2CCN(C)C2)c1`, the GI50 in data set [1] is 19 nM; in [2] it was 463 nM.

Turning to `CC(C)Oc1cc(Nc2ccnc(-c3cnn(S(=O)(=O)C4CC4)c3)n2)ncc1-c1cnn(C2CCN(C)CC2)c1`, the GI50 in [1] was 9.6 nM; in [2], 203 nM.

For the compound `CC(C)Oc1cc(Nc2ccnc(-c3cnn(S(=O)(=O)C4CC4)c3)n2)ncc1-c1cnn([C@H]2C[C@H](C)N(C)C2)c1`, the GI50 in data set [1] amounted to 26 nM; in [2], 387 nM.
